Target: P. falciparum apicoplast DNA polymerase (Pf-apPOL) (Plasmodium falciparum, UniProt Q8ILY1)
Assay: Fluorescence-based high-throughput DNA polymerase assay (molecular beacon), primary screen and dose-response;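 for % inhibition ApPOL 90': test concentration in µM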;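 for % inhibition apPOL 180': test concentration in µM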
Assay type: biochemical
How it was run: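 Single-point screening used 10 µM compound with 20 nM polymerase, 20 nM hairpin substrate and 6 µM dNTPs for 90 min at 25 °C. Confirmatory titrations (2.5–80 µM) followed fluorescence at three times, and IC50 was derived from a fit including a cooperativity term n.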

[1] = DRC-1; concentration 80 (unit not given); 10'
[2] = primary screen value of the 186 hits; unit not given; 90 min, 10 µM
[3] = primary screen value; head prints only 'DNA Pol'; 90 min, 10 µM
[4] = supplemental file 2, sheet IC50 nontoxic compounds; Pf-apPOL

P. falciparum apicoplast DNA polymerase (Pf-apPOL), sequence (Q8ILY1 entry or part of it): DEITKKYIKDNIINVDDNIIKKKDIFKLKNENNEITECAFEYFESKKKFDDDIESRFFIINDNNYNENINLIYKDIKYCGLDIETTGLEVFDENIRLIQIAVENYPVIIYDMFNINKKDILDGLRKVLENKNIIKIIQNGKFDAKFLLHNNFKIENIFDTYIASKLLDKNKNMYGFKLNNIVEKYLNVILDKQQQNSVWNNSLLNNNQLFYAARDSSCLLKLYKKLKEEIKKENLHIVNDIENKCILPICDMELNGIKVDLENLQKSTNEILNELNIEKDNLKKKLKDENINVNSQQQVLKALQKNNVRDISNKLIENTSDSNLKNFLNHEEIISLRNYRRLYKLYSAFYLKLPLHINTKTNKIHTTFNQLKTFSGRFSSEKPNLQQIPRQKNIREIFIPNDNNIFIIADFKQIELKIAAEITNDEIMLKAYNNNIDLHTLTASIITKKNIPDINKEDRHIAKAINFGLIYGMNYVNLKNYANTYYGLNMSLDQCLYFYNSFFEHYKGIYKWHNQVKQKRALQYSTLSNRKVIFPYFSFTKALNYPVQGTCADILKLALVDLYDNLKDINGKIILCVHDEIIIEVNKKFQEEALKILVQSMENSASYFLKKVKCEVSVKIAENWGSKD

CCCCCc1c2c(cc(O)c1C(=O)O)OC(=O)c1c(cc(OC)cc1C(=O)CCCC)O2 [Molecule 24, CCCCCc1c2Oc3cc(OC)cc(c3C(=O)Oc2cc(c1C(=O)O)O)C(=O)CCCC]
% inhibition Apo pol 10' (DRC-1; concentration 2.5; 10'): 18.1675%
% inhibition Apol 90' (DRC-1; concentration 2.5; 90'): 17.5572%
% inhibition apPOL 180' (DRC-1; concentration 2.5; 180'): 13.8829%
% inhibition Apo pol 10' (DRC-1; concentration 5; 10'): 31.5197%
% inhibition Apol 90' (DRC-1; concentration 5; 90'): 20.3733%
% inhibition apPOL 180' (DRC-1; concentration 5; 180'): 11.4977%
% inhibition Apo pol 10' (DRC-1; concentration 10; 10'): 51.0452%
% inhibition Apol 90' (DRC-1; concentration 10; 90'): 38.7515%
% inhibition apPOL 180' (DRC-1; concentration 10; 180'): 28.4609%
% inhibition Apo pol 10' (DRC-1; concentration 20; 10'): 86.3655%
% inhibition Apol 90' (DRC-1; concentration 20; 90'): 81.3702%
% inhibition apPOL 180' (DRC-1; concentration 20; 180'): 74.6955%
% inhibition Apo pol 10' (DRC-1; concentration 40; 10'): 94.8127%
% inhibition Apol 90' (DRC-1; concentration 40; 90'): 91.3399%
% inhibition apPOL 180' (DRC-1; concentration 40; 180'): 88.9652%
% inhibition Apo pol 10' [1]: 96.1248%
% inhibition Apol 90' (DRC-1; concentration 80; 90'): 93.64%
% inhibition apPOL 180' (DRC-1; concentration 80; 180'): 92.215%
% inhibition Apo pol 5' (DRC-2; 5'; concentration 2.5): 11%
% inhibition Apol 40' (DRC-2; 40'; concentration 10): 51%
% inhibition Apol 40' (DRC-2; 40'; concentration 20): 43%
% inhibition ApPOL 90' (DRC-2; 90'; concentration 2.5): 11%
% inhibition ApPOL 90' (DRC-2; 90'; concentration 10): 51%
% inhibition apPOL 180' (DRC-2; 180'; concentration 5): 11%
% inhibition apPOL 180' (DRC-2; 180'; concentration 10): 43%
% inhibition Apo pol 5' (DRC-2; concentration 2.5; 5'): 11%
% inhibition Apol 40' (DRC-2; concentration 2.5; 40'): 14%
% inhibition ApPOL 90' (DRC-2; concentration 2.5; 90'): 11%
% inhibition apPOL 180' (DRC-2; concentration 2.5; 180'): 6%
% inhibition Apo pol 5' (DRC-2; concentration 5; 5'): 18%
% inhibition Apol 40' (DRC-2; concentration 5; 40'): 20%
% inhibition ApPOL 90' (DRC-2; concentration 5; 90'): 19%
% inhibition apPOL 180' (DRC-2; concentration 5; 180'): 11%
% inhibition Apo pol 5' (DRC-2; concentration 10; 5'): 42%
% inhibition Apol 40' (DRC-2; concentration 10; 40'): 51%
% inhibition ApPOL 90' (DRC-2; concentration 10; 90'): 51%
% inhibition apPOL 180' (DRC-2; concentration 10; 180'): 43%
% inhibition Apo pol 5' (DRC-2; concentration 20; 5'): 35%
% inhibition Apol 40' (DRC-2; concentration 20; 40'): 43%
% inhibition ApPOL 90' (DRC-2; concentration 20; 90'): 41%
% inhibition apPOL 180' (DRC-2; concentration 20; 180'): 32%
% inhibition Apo pol 5' (DRC-2; concentration 40; 5'): 49%
% inhibition Apol 40' (DRC-2; concentration 40; 40'): 65%
% inhibition ApPOL 90' (DRC-2; concentration 40; 90'): 66%
% inhibition apPOL 180' (DRC-2; concentration 40; 180'): 62%
% inhibition Apo pol 5' (DRC-2; concentration 80; 5'): 56%
% inhibition Apol 40' (DRC-2; concentration 80; 40'): 76%
% inhibition ApPOL 90' (DRC-2; concentration 80; 90'): 80%
% inhibition apPOL 180' (DRC-2; concentration 80; 180'): 81%
DNA Pol [2]: 33
DNA Pol [3]: 33

O=C(O)c1nc(-c2ccccc2)nc2c1OCO2 [Molecule 45, OC(=O)c1nc(nc2c1OCO2)c1ccccc1]
% inhibition Apo pol 10' (DRC-1; concentration 2.5; 10'): 6.785%
% inhibition Apol 90' (DRC-1; concentration 2.5; 90'): -0.7182%
% inhibition apPOL 180' (DRC-1; concentration 2.5; 180'): -6.279%
% inhibition Apo pol 10' (DRC-1; concentration 5; 10'): 18.6858%
% inhibition Apol 90' (DRC-1; concentration 5; 90'): 2.776%
% inhibition apPOL 180' (DRC-1; concentration 5; 180'): -4.7971%
% inhibition Apo pol 10' (DRC-1; concentration 10; 10'): 46.4099%
% inhibition Apol 90' (DRC-1; concentration 10; 90'): 22.6615%
% inhibition apPOL 180' (DRC-1; concentration 10; 180'): 10.4504%
% inhibition Apo pol 10' (DRC-1; concentration 20; 10'): 71.5187%
% inhibition Apol 90' (DRC-1; concentration 20; 90'): 46.4112%
% inhibition apPOL 180' (DRC-1; concentration 20; 180'): 26.9983%
% inhibition Apo pol 10' (DRC-1; concentration 40; 10'): 89.2051%
% inhibition Apol 90' (DRC-1; concentration 40; 90'): 75.6472%
% inhibition apPOL 180' (DRC-1; concentration 40; 180'): 64.3043%
% inhibition Apo pol 10' [1]: 95.8219%
% inhibition Apol 90' (DRC-1; concentration 80; 90'): 92.7909%
% inhibition apPOL 180' (DRC-1; concentration 80; 180'): 90.3482%
% inhibition Apol 40' (DRC-2; 40'; concentration 2.5): 7%
% inhibition Apol 40' (DRC-2; 40'; concentration 10): 34%
% inhibition Apol 40' (DRC-2; 40'; concentration 40): 69%
% inhibition ApPOL 90' (DRC-2; 90'; concentration 5): 7%
% inhibition ApPOL 90' (DRC-2; 90'; concentration 40): 69%
% inhibition apPOL 180' (DRC-2; 180'; concentration 20): 34%
% inhibition Apo pol 5' (DRC-2; concentration 2.5; 5'): 13%
% inhibition Apol 40' (DRC-2; concentration 2.5; 40'): 7%
% inhibition ApPOL 90' (DRC-2; concentration 2.5; 90'): 4%
% inhibition apPOL 180' (DRC-2; concentration 2.5; 180'): -1.61%
% inhibition Apo pol 5' (DRC-2; concentration 5; 5'): 24%
% inhibition Apol 40' (DRC-2; concentration 5; 40'): 14%
% inhibition ApPOL 90' (DRC-2; concentration 5; 90'): 7%
% inhibition apPOL 180' (DRC-2; concentration 5; 180'): -1.28%
% inhibition Apo pol 5' (DRC-2; concentration 10; 5'): 42%
% inhibition Apol 40' (DRC-2; concentration 10; 40'): 34%
% inhibition ApPOL 90' (DRC-2; concentration 10; 90'): 27%
% inhibition apPOL 180' (DRC-2; concentration 10; 180'): 17%
% inhibition Apo pol 5' (DRC-2; concentration 20; 5'): 50%
% inhibition Apol 40' (DRC-2; concentration 20; 40'): 51%
% inhibition ApPOL 90' (DRC-2; concentration 20; 90'): 45%
% inhibition apPOL 180' (DRC-2; concentration 20; 180'): 34%
% inhibition Apo pol 5' (DRC-2; concentration 40; 5'): 58%
% inhibition Apol 40' (DRC-2; concentration 40; 40'): 69%
% inhibition ApPOL 90' (DRC-2; concentration 40; 90'): 69%
% inhibition apPOL 180' (DRC-2; concentration 40; 180'): 68%
% inhibition Apo pol 5' (DRC-2; concentration 80; 5'): 60%
% inhibition Apol 40' (DRC-2; concentration 80; 40'): 77%
% inhibition ApPOL 90' (DRC-2; concentration 80; 90'): 80%
% inhibition apPOL 180' (DRC-2; concentration 80; 180'): 82%
DNA Pol [2]: 34
DNA Pol [3]: 34

O=C(Nc1nnc(-c2cccs2)o1)c1ccc([N+](=O)[O-])o1 [Molecule 74]
IC50 [4]: 30.8 µM

O=C1c2ccccc2C(=O)N1Oc1ccc([N+](=O)[O-])c([N+](=O)[O-])c1 [Molecule 66]
IC50 [4]: 37 µM

O=C(CSc1nnc(-c2ccncc2)[nH]1)c1ccc(O)c(O)c1 [Molecule 89]
IC50 [4]: < 2.5 µM

— PMC9090415, “Discovery of small molecule inhibitors of Plasmodium falciparum apicoplast DNA polymerase” (Journal of Enzyme Inhibition and Medicinal Chemistry, 2022)
